# Laboratory results as given in the OligoGym collection.
# Oligonucleotides are given in HELM: sugar(base)linkage, 5' to 3'; d 2'-deoxyribose, r ribose, m 2'-O-methylribose, p phosphate. ss, as = sense and antisense strand
# Biological target: UBE2K
# Assay: reporter assay of Huesken 2005
# Conditions: siRNA
# Note: test concentration or dose not given here.
row,Substance,normalised inhibition (eCFP-eYFP dual reporter) [%]
1,RNA1{r(A)p.r(G)p.r(G)p.r(A)p.r(C)p.r(C)p.r(U)p.r(C)p.r(C)p.r(A)p.r(G)p.r(A)p.r(C)p.r(A)p.r(C)p.r(A)p.r(C)p.r(C)p.r(A)p.d(T)p.d(T)}|RNA2{r(U)p.r(G)p.r(G)p.r(U)p.r(G)p.r(U)p.r(G)p.r(U)p.r(C)p.r(U)p.r(G)p.r(G)p.r(A)p.r(G)p.r(G)p.r(U)p.r(C)p.r(C)p.r(U)p.d(G)p.d(C)}$$$RNA1{StrandType:ss}|RNA2{StrandType:as}$,74.6
2,RNA1{r(A)p.r(G)p.r(G)p.r(A)p.r(G)p.r(A)p.r(A)p.r(A)p.r(U)p.r(A)p.r(G)p.r(C)p.r(A)p.r(G)p.r(G)p.r(A)p.r(C)p.r(C)p.r(U)p.d(T)p.d(T)}|RNA2{r(A)p.r(G)p.r(G)p.r(U)p.r(C)p.r(C)p.r(U)p.r(G)p.r(C)p.r(U)p.r(A)p.r(U)p.r(U)p.r(U)p.r(C)p.r(U)p.r(C)p.r(C)p.r(U)p.d(C)p.d(T)}$$$RNA1{StrandType:ss}|RNA2{StrandType:as}$,69.4
3,RNA1{r(A)p.r(G)p.r(G)p.r(A)p.r(G)p.r(G)p.r(A)p.r(A)p.r(G)p.r(A)p.r(U)p.r(A)p.r(C)p.r(C)p.r(A)p.r(A)p.r(C)p.r(U)p.r(A)p.d(T)p.d(T)}|RNA2{r(U)p.r(A)p.r(G)p.r(U)p.r(U)p.r(G)p.r(G)p.r(U)p.r(A)p.r(U)p.r(C)p.r(U)p.r(U)p.r(C)p.r(C)p.r(U)p.r(C)p.r(C)p.r(U)p.d(T)p.d(C)}$$$RNA1{StrandType:ss}|RNA2{StrandType:as}$,75.4
4,RNA1{r(A)p.r(G)p.r(G)p.r(A)p.r(U)p.r(G)p.r(C)p.r(U)p.r(G)p.r(U)p.r(A)p.r(G)p.r(U)p.r(A)p.r(G)p.r(C)p.r(A)p.r(A)p.r(A)p.d(T)p.d(T)}|RNA2{r(U)p.r(U)p.r(U)p.r(G)p.r(C)p.r(U)p.r(A)p.r(C)p.r(U)p.r(A)p.r(C)p.r(A)p.r(G)p.r(C)p.r(A)p.r(U)p.r(C)p.r(C)p.r(U)p.d(G)p.d(T)}$$$RNA1{StrandType:ss}|RNA2{StrandType:as}$,92.1
5,RNA1{r(A)p.r(G)p.r(G)p.r(G)p.r(G)p.r(C)p.r(U)p.r(A)p.r(U)p.r(U)p.r(U)p.r(G)p.r(U)p.r(U)p.r(U)p.r(G)p.r(G)p.r(A)p.r(U)p.d(T)p.d(T)}|RNA2{r(A)p.r(U)p.r(C)p.r(C)p.r(A)p.r(A)p.r(A)p.r(C)p.r(A)p.r(A)p.r(A)p.r(U)p.r(A)p.r(G)p.r(C)p.r(C)p.r(C)p.r(C)p.r(U)p.d(G)p.d(T)}$$$RNA1{StrandType:ss}|RNA2{StrandType:as}$,71
6,RNA1{r(A)p.r(G)p.r(U)p.r(A)p.r(G)p.r(A)p.r(U)p.r(C)p.r(U)p.r(U)p.r(G)p.r(U)p.r(A)p.r(G)p.r(A)p.r(U)p.r(G)p.r(A)p.r(G)p.d(T)p.d(T)}|RNA2{r(C)p.r(U)p.r(C)p.r(A)p.r(U)p.r(C)p.r(U)p.r(A)p.r(C)p.r(A)p.r(A)p.r(G)p.r(A)p.r(U)p.r(C)p.r(U)p.r(A)p.r(C)p.r(U)p.d(T)p.d(T)}$$$RNA1{StrandType:ss}|RNA2{StrandType:as}$,88.2
7,RNA1{r(A)p.r(U)p.r(A)p.r(C)p.r(C)p.r(A)p.r(A)p.r(C)p.r(U)p.r(A)p.r(G)p.r(A)p.r(G)p.r(A)p.r(U)p.r(A)p.r(A)p.r(A)p.r(A)p.d(T)p.d(T)}|RNA2{r(U)p.r(U)p.r(U)p.r(U)p.r(A)p.r(U)p.r(C)p.r(U)p.r(C)p.r(U)p.r(A)p.r(G)p.r(U)p.r(U)p.r(G)p.r(G)p.r(U)p.r(A)p.r(U)p.d(C)p.d(T)}$$$RNA1{StrandType:ss}|RNA2{StrandType:as}$,78.5
8,RNA1{r(A)p.r(U)p.r(A)p.r(C)p.r(C)p.r(A)p.r(G)p.r(A)p.r(A)p.r(A)p.r(C)p.r(A)p.r(U)p.r(A)p.r(C)p.r(C)p.r(C)p.r(A)p.r(U)p.d(T)p.d(T)}|RNA2{r(A)p.r(U)p.r(G)p.r(G)p.r(G)p.r(U)p.r(A)p.r(U)p.r(G)p.r(U)p.r(U)p.r(U)p.r(C)p.r(U)p.r(G)p.r(G)p.r(U)p.r(A)p.r(U)p.d(T)p.d(T)}$$$RNA1{StrandType:ss}|RNA2{StrandType:as}$,76.3
